Measured values as given in article PMC6691587, “New CXCR1/CXCR2 inhibitors represent an effective treatment for kidney or head and neck cancers sensitive or refractory to reference treatments” (Theranostics, 2019).
Read-outs that look alike come from different tables or passages of the source.

Assays:
[1] = system: panel of human tumor cell lines; test: XTT screening on a panel of tumor cell lines; format: cell-based; settings: for IC50: Homo sapiens
Protocol: (§1) Fifty microliters of sodium 3′-[1-phenylaminocarbonyl)-3,4-tetrazolium]-bis(4-methoxy-6-nitro) benzene sulfonic acid hydrate (XTT) reagent was added to each well. The assay is based on the cleavage of the yellow tetrazolium salt XTT to form an orange formazan dye by metabolically active cells. This bio-reduction occurs in viable cells only and is related to NAD(P)H production through glycolysis. Therefore, the amount of formazan dye measured at 490 nm directly correlated with the number of metabolically active cells reflecting cell proliferation and viability. Each assay was performed in quadruplicate.

MDA-MD-231 = test: XTT cell viability assay, breast cancer cells; format: cell-based, human; settings: 48 h, SD 10%, mean of three experiments
Protocol: as §1

A498 = test: XTT cell viability assay, A498 RCC cells; format: cell-based, human; settings: XTT assay, 48 h, SD 10%, mean of three experiments, read-out: IC50 498 (Kidney RCC)
Protocol: as §1

Molm14 = test: XTT cell viability assay, Molm14 AML cells; format: cell-based, human; settings: SD 10%, mean of three experiments
Protocol: as §1

786-O = test: XTT cell viability assay, 786-O RCC cells; format: cell-based, human; settings: XTT assay, 48 h, SD 10%, mean of three experiments, read-out: IC50 786 (Kidney RCC)
Protocol: as §1

SKM1 = test: XTT cell viability assay, SKM1 MDS cells; format: cell-based, human; settings: SD 10%, mean of three experiments, read-out: IC50 SK (MDS)
Protocol: as §1

K562 = test: XTT cell viability assay, K562 CML cells; format: cell-based, human; settings: SD 10%, mean of three experiments
Protocol: as §1

RCC4 = test: XTT cell viability assay, RCC4 RCC cells; format: cell-based, human; settings: SD 10%, mean of three experiments, read-out: IC50 R4 (Kidney RCC)
Protocol: as §1

CAL33 = test: XTT cell viability assay, CAL33 HNSCC cells; format: cell-based, human; settings: XTT assay, 48 h, SD 10%, mean of three experiments, read-out: IC50 33 (HNSCC)
Protocol: as §1

CAL27 = test: XTT cell viability assay, CAL27 HNSCC cells; format: cell-based, human; settings: XTT assay, 48 h, SD 10%, mean of three experiments, read-out: IC50 27 (HNSCC)
Protocol: as §1

OCI-AML3 = test: XTT cell viability assay, OCI-AML3 AML cells; format: cell-based, human; settings: SD 10%, mean of three experiments, read-out: IC50 L3 (AML)
Protocol: as §1

OCI-AML2 = test: XTT cell viability assay, OCI-AML2 AML cells; format: cell-based, human; settings: SD 10%, mean of three experiments, read-out: IC50 L2 (AML)
Protocol: as §1

Molm13 = test: XTT cell viability assay, Molm13 AML cells; format: cell-based, human; settings: SD 10%, mean of three experiments
Protocol: as §1

[2] = read-out: IC50 values for several cancer cell lines

Structure (SMILES) | IC50 (MDA-MD-231; Homo sapiens) | IC50 (A498; Homo sapiens, A498) | IC50 (Molm14; Homo sapiens, MOLM-14, 48 h) | IC50 (786-O; Homo sapiens, 786-0) | IC50 (SKM1; Homo sapiens, SKM-1, 48 h) | IC50 (K562; Homo sapiens, K562, 48 h) | IC50 (RCC4; Homo sapiens, RCC4, 48 h) | IC50 (CAL33; Homo sapiens, CAL-33) | IC50 (CAL27; Homo sapiens, CAL-27) | IC50 (OCI-AML3; Homo sapiens, OCI-AML-3, 48 h) | IC50 (OCI-AML2; Homo sapiens, OCI-AML2, 48 h) | IC50 (Molm13; Homo sapiens, MOLM-13, 48 h) | further results
O=C(Nc1nc2ccc([N+](=O)[O-])cc2s1)Nc1ccccc1Cl [C28] | 8 µM | 5 µM | 10 µM | 5 µM | 10 µM | 7 µM | 7 µM | 5 µM | 7 µM | 10 µM | 10 µM | 5 µM | IC50 [1, 2]: < 20 µM
O=C(Nc1ccc(Cl)cc1)Nc1ccccc1O [C12] | 12 µM | 10 µM | 15 µM | 15 µM | > 25 µM | 25 µM | 15 µM | 10 µM | 12 µM | 25 µM | 15 µM | > 25 µM | IC50 ([1]; read-out: IC50 for solid tumors (breast and kidney)): 10 to 20 µM
CCOc1ccc2nc(NC(=O)Nc3ccccc3C)sc2c1 [C30] | 12 µM | 15 µM | 10 µM | 15 µM | 15 µM | 4 µM | > 25 µM | 15 µM | 5 µM | 7 µM | 15 µM | 15 µM | IC50 [1, 2]: < 20 µM
Cc1ccc2nc(NC(=O)Nc3ccccc3Cl)sc2c1 [C25] | > 25 µM | 15 µM | 10 µM | 15 µM | 25 µM | 25 µM | > 25 µM | 10 µM | 5 µM | 10 µM | > 25 µM | 15 µM | IC50 [1, 2]: < 20 µM
O=C(Nc1ccc([N+](=O)[O-])cc1O)Nc1ccccc1Br [SB225002, reference compound] |  |  |  |  |  |  |  |  |  |  |  |  | effect on RCC and HNSCC cells ([1]; 786, 786R, CAL27, CAL27R (Figure S7), compared to C29): modest effect; IC50 (MDA-MD-231): 100 µM; IC50 (A498): 70 µM; IC50 (Molm14; 48 h, read-out: IC50 14 (AML)): 90 µM; IC50 (786-O): 100 µM; IC50 (SKM1; 48 h): > 100 µM; IC50 (K562; 48 h): > 100 µM; IC50 (RCC4; 48 h): 100 µM; IC50 (CAL33): 80 µM; IC50 (CAL27): 100 µM; IC50 (OCI-AML3; 48 h): 90 µM; IC50 (OCI-AML2; 48 h): > 100 µM; IC50 (Molm13; 48 h, read-out: IC50 13 (AML)): > 100 µM
COc1ccc(NC(=O)Nc2nc3ccccc3[nH]2)cc1 [C17] | > 25 µM | > 25 µM | > 25 µM | > 25 µM | > 25 µM | > 25 µM | > 25 µM | > 25 µM | > 25 µM | > 25 µM | > 25 µM | > 25 µM | 
O=C(Nc1ccc(Cl)cc1)Nc1ccc(Cl)cc1 [C10] | > 25 µM | > 25 µM | > 25 µM | > 25 µM | > 25 µM | > 25 µM | > 25 µM | > 25 µM | > 25 µM | > 25 µM | > 25 µM | > 25 µM | 
CCOc1ccc2nc(NC(=O)Nc3ccc(C)cc3)sc2c1 [C32] | > 25 µM | > 25 µM | > 25 µM | > 25 µM | > 25 µM | > 25 µM | > 25 µM | > 25 µM | > 25 µM | > 25 µM | > 25 µM | > 25 µM | 
Cc1cccc(NC(=O)Nc2nc3ccc(C)cc3s2)c1 [C27] | > 25 µM | > 25 µM | > 25 µM | > 25 µM | > 25 µM | > 25 µM | > 25 µM | > 25 µM | > 25 µM | > 25 µM | > 25 µM | > 25 µM | 
O=C(Nc1nc2ccccc2s1)Nc1ccccc1Cl [C21] | > 25 µM | > 25 µM | > 25 µM | > 25 µM | > 25 µM | > 25 µM | 25 µM | > 25 µM | > 25 µM | > 25 µM | 10 µM | > 25 µM | 
CCOc1ccc2nc(NC(=O)Nc3cccc(C)c3)sc2c1 [C31] | > 25 µM | > 25 µM | 25 µM | > 25 µM | > 25 µM | 25 µM | > 25 µM | > 25 µM | > 25 µM | > 25 µM | 25 µM | > 25 µM | 
O=C(Nc1ccccc1Cl)Nc1ccc(Cl)cc1Cl [C4] | > 25 µM | > 25 µM | > 25 µM | > 25 µM | > 25 µM | > 25 µM | > 25 µM | > 25 µM | > 25 µM | > 25 µM | > 25 µM | > 25 µM | 
O=C(Nc1cccc(Cl)c1)Nc1nc2ccccc2s1 [C22] | > 25 µM | > 25 µM | > 25 µM | > 25 µM | > 25 µM | 25 µM | 20 µM | > 25 µM | > 25 µM | > 25 µM | > 25 µM | > 25 µM | 
